Results taken from ChEMBL document CHEMBL5726876, “NHE3-binding compounds and methods for inhibiting phosphate transport” (2019).
pIC50: −log10 of the molar value.

Test: Cell-based activity under Prompt Conditions: Cell-based activity under Prompt Conditions. Rat or human NHE3-mediated Na+-dependent H+ antiport was measured using a modification of the pH sensitive dye method originally reported by Paradiso (PNAS USA. 81:7436-7440, 1984). Opossum kidney (OK) cells were obtained from the ATCC and propagated per their instructions. The rat NHE3 gene (GenBank M85300) or the human NHE3 gene (GenBank NM_004174.1) was introduced into OK cells via electroporation, and cells were seeded into 96 well plates and grown overnight. Medium was aspirated from the wells, cells were washed twice with NaCl-HEPES buffer (100 mM NaCl, 50 mM HEPES, 10 mM glucose, 5 mM KCl, 2 mM CaCl2, 1 mM MgCl2, pH 7.4), then incubated for 30 min at room temperature with NH4Cl-HEPES buffer (20 mM NH4Cl, 80 mM NaCl, 50 mM HEPES, 5 mM KCl, 2 mM CaCl2, 1 mM MgCl2, pH 7.4) containing 5 μM bis(acetoxymethyl) 3,3′-(3′,6′-bis(acetoxymethoxy)-5-((acetoxymethoxy)carbonyl)-3-oxo-3H-spiro[isobenzofuran-1,9′-xanthene]-2′,7′-diyl)dipropanoate (BCECF-AM).Cells were washed twice with Ammonium free, Na+-free HEPES (100 mM choline, 50 mM HEPES, 10 mM glucose, 5 mM KCl, 2 mM CaCl2, 1 mM MgCl2, pH 7.4) and incubated in the same buffer for 10 minutes at room temperature to lower intracellular pH. […] Initial rates were plotted as the average 2 or more replicates, and pIC50 values were estimated using GraphPad Prism.

In the case of CN1Cc2c(Cl)cc(Cl)cc2[C@H](c2cccc(S(=O)(=O)NCCOCCOCCNC(=O)CCC(CCC(=O)NCCOCCOCCNS(=O)(=O)c3cccc([C@@H]4CN(C)Cc5c(Cl)cc(Cl)cc54)c3)(CCC(=O)NCCOCCOCCNS(=O)(=O)c3cccc([C@@H]4CN(C)Cc5c(Cl)cc(Cl)cc54)c3)NC(=O)NC[C@H](O)[C@@H](O)[C@H](O)[C@H](O)CO)c2)C1, the pIC50 was 7.25.
With O=C(NCCCCNC(=O)NCCOCCOCCNS(=O)(=O)c1ccc(O[C@H]2c3cc(Cl)cc(F)c3C[C@@H]2N2CC[C@@H](O)C2)cc1)NCCOCCOCCNS(=O)(=O)c1ccc(O[C@H]2c3cc(Cl)cc(F)c3C[C@@H]2N2CC[C@@H](O)C2)cc1 the pIC50 was greater than 5.00.
CN1Cc2c(Cl)cc(Cl)cc2[C@H](c2cccc(S(=O)(=O)NCCOCCOCCNC(=O)CCC(CCC(=O)NCCOCCOCCNS(=O)(=O)c3cccc([C@@H]4CN(C)Cc5c(Cl)cc(Cl)cc54)c3)(CCC(=O)NCCOCCOCCNS(=O)(=O)c3cccc([C@@H]4CN(C)Cc5c(Cl)cc(Cl)cc54)c3)NC(=O)NCC(=O)O)c2)C1 showed a pIC50 of 7.53.
CN1Cc2c(Cl)cc(Cl)cc2[C@H](c2cccc(S(=O)(=O)NCCOCCOCCNC(=O)CCC(CCC(=O)NCCOCCOCCNS(=O)(=O)c3cccc([C@@H]4CN(C)Cc5c(Cl)cc(Cl)cc54)c3)(CCC(=O)NCCOCCOCCNS(=O)(=O)c3cccc([C@@H]4CN(C)Cc5c(Cl)cc(Cl)cc54)c3)NC(=O)Cc3nnn[nH]3)c2)C1 gave a pIC50 of 6.70.
For CC(=O)C(CCC(=O)NCCOCCOCCNS(=O)(=O)c1cccc([C@@H]2CN(C)Cc3c(Cl)cc(Cl)cc32)c1)(CCC(=O)NCCOCCOCCNS(=O)(=O)c1cccc([C@@H]2CN(C)Cc3c(Cl)cc(Cl)cc32)c1)CCC(=O)NCCOCCOCCNS(=O)(=O)c1cccc([C@@H]2CN(C)Cc3c(Cl)cc(Cl)cc32)c1, the pIC50 was 6.50.
In the case of CN(C)[C@H]1Cc2c(Cl)cc(Cl)cc2[C@@H]1Oc1ccc(S(=O)(=O)NCCOCCOCCNC(=O)COCC(=O)NCCOCCOCCNS(=O)(=O)c2ccc(O[C@H]3c4cc(Cl)cc(Cl)c4C[C@@H]3N(C)C)cc2)cc1, the pIC50 was 8.10.
Work on CN(C)[C@H]1Cc2c(Cl)cc(Cl)cc2[C@@H]1Oc1ccc(S(=O)(=O)NCCOCCOCCNC(=O)CCC(C)(N)CCC(=O)NCCOCCOCCNS(=O)(=O)c2ccc(O[C@H]3c4cc(Cl)cc(Cl)c4C[C@@H]3N(C)C)cc2)cc1 yielded a pIC50 of 8.60.
In the case of CN(C)[C@H]1Cc2c(Cl)cc(Cl)cc2[C@@H]1Oc1ccc(S(=O)(=O)NCCOCCOCCNC(=O)CCC(=O)NCCOCCOCCNS(=O)(=O)c2ccc(O[C@H]3c4cc(Cl)cc(Cl)c4C[C@@H]3N(C)C)cc2)cc1, the pIC50 was 8.40.
In the case of CN1Cc2c(Cl)cc(Cl)cc2[C@H](c2cccc(S(=O)(=O)NCCOCCOCCNC(=O)CCC(CCC(=O)NCCOCCOCCNS(=O)(=O)c3cccc([C@@H]4CN(C)Cc5c(Cl)cc(Cl)cc54)c3)(CCC(=O)NCCOCCOCCNS(=O)(=O)c3cccc([C@@H]4CN(C)Cc5c(Cl)cc(Cl)cc54)c3)NC(=O)N[C@@H](CO)C(=O)O)c2)C1, the pIC50 was 7.90.
Work on CN(C)[C@H]1Cc2c(Cl)cc(Cl)cc2[C@@H]1Oc1ccc(S(=O)(=O)NCCOCCOCCNC(=O)Nc2ccc(NC(=O)NCCOCCOCCNS(=O)(=O)c3ccc(O[C@H]4c5cc(Cl)cc(Cl)c5C[C@@H]4N(C)C)cc3)cc2)cc1 yielded a pIC50 greater than 5.00.
Work on CN1Cc2c(Cl)cc(Cl)cc2[C@H](c2cccc(S(=O)(=O)NCCOCCOCCNC(=O)CCC(CCC(=O)NCCOCCOCCNS(=O)(=O)c3cccc([C@@H]4CN(C)Cc5c(Cl)cc(Cl)cc54)c3)(CCC(=O)NCCOCCOCCNS(=O)(=O)c3cccc([C@@H]4CN(C)Cc5c(Cl)cc(Cl)cc54)c3)NC(=O)NCCS(=O)(=O)O)c2)C1 yielded a pIC50 of 7.70.
CN1Cc2c(Cl)cc(Cl)cc2[C@H](c2cccc(S(=O)(=O)NCCOCCOCCNC(=O)CCC(CCC(=O)NCCOCCOCCNS(=O)(=O)c3cccc([C@@H]4CN(C)Cc5c(Cl)cc(Cl)cc54)c3)(CCC(=O)NCCOCCOCCNS(=O)(=O)c3cccc([C@@H]4CN(C)Cc5c(Cl)cc(Cl)cc54)c3)NC(=O)NCCN3CCOCC3)c2)C1 gave a pIC50 of 7.20.
Compound CN(C)[C@H]1Cc2c(F)cc(Cl)cc2[C@@H]1Oc1ccc(S(=O)(=O)NCCOCCOCCNC(=O)NCCCCNC(=O)NCCOCCOCCNS(=O)(=O)c2ccc(O[C@H]3c4cc(Cl)cc(F)c4C[C@@H]3N(C)C)cc2)cc1 has a pIC50 greater than 5.00.
Compound CN1Cc2c(Cl)cc(Cl)cc2[C@H](c2cccc(S(=O)(=O)NCCOCCOCCNC(=O)NCCCC(CCCNC(=O)NCCOCCOCCNS(=O)(=O)c3cccc([C@@H]4CN(C)Cc5c(Cl)cc(Cl)cc54)c3)(CCCNC(=O)NCCOCCOCCNS(=O)(=O)c3cccc([C@@H]4CN(C)Cc5c(Cl)cc(Cl)cc54)c3)NC(=O)COCC(=O)O)c2)C1 has a pIC50 of 9.20.
Compound CN1Cc2c(Cl)cc(Cl)cc2[C@H](c2cccc(S(=O)(=O)NCCOCCOCCNC(=O)CCC(CCC(=O)NCCOCCOCCNS(=O)(=O)c3cccc([C@@H]4CN(C)Cc5c(Cl)cc(Cl)cc54)c3)(CCC(=O)NCCOCCOCCNS(=O)(=O)c3cccc([C@@H]4CN(C)Cc5c(Cl)cc(Cl)cc54)c3)NC(=O)NC(CO)(CO)CO)c2)C1 has a pIC50 greater than 5.00.
Work on C[C@@H](O)[C@H](NC(=O)NC(CCC(=O)NCCOCCOCCNS(=O)(=O)c1cccc([C@@H]2CN(C)Cc3c(Cl)cc(Cl)cc32)c1)(CCC(=O)NCCOCCOCCNS(=O)(=O)c1cccc([C@@H]2CN(C)Cc3c(Cl)cc(Cl)cc32)c1)CCC(=O)NCCOCCOCCNS(=O)(=O)c1cccc([C@@H]2CN(C)Cc3c(Cl)cc(Cl)cc32)c1)C(N)=O yielded a pIC50 of 7.20.
Compound CN(C)[C@H]1Cc2c(Cl)cc(Cl)cc2[C@@H]1Oc1ccc(S(=O)(=O)NCCOCCOCCNC(=O)[C@H](O)[C@@H](O)C(=O)NCCOCCOCCNS(=O)(=O)c2ccc(O[C@H]3c4cc(Cl)cc(Cl)c4C[C@@H]3N(C)C)cc2)cc1 has a pIC50 of 8.60.
For CN1Cc2c(Cl)cc(Cl)cc2[C@H](c2cccc(S(=O)(=O)NCCOCCOCCNC(=O)NCCCC(N)(CCCNC(=O)NCCOCCOCCNS(=O)(=O)c3cccc([C@@H]4CN(C)Cc5c(Cl)cc(Cl)cc54)c3)CCCNC(=O)NCCOCCOCCNS(=O)(=O)c3cccc([C@@H]4CN(C)Cc5c(Cl)cc(Cl)cc54)c3)c2)C1, the pIC50 was 7.00.
With CN1Cc2c(Cl)cc(Cl)cc2[C@H](c2cccc(S(=O)(=O)N(CCO)CCOCCOCCNC(=O)NCCCN(CCCNC(=O)NCCOCCOCCN(CCO)S(=O)(=O)c3cccc([C@@H]4CN(C)Cc5c(Cl)cc(Cl)cc54)c3)CCCNC(=O)NCCOCCOCCN(CCO)S(=O)(=O)c3cccc([C@@H]4CN(C)Cc5c(Cl)cc(Cl)cc54)c3)c2)C1 the pIC50 was 7.80.
CN1Cc2c(Cl)cc(Cl)cc2[C@H](c2cccc(S(=O)(=O)NCCOCCOCCNC(=O)CCC(CCC(=O)NCCOCCOCCNS(=O)(=O)c3cccc([C@@H]4CN(C)Cc5c(Cl)cc(Cl)cc54)c3)(CCC(=O)NCCOCCOCCNS(=O)(=O)c3cccc([C@@H]4CN(C)Cc5c(Cl)cc(Cl)cc54)c3)NC(=O)Cn3ccnc3)c2)C1 showed a pIC50 of 6.80.
CN(C)[C@H]1Cc2c(Cl)cc(Cl)cc2[C@@H]1Oc1ccc(S(=O)(=O)NCCOCCOCCNC(=O)C(C)(C)C(=O)NCCOCCOCCNS(=O)(=O)c2ccc(O[C@H]3c4cc(Cl)cc(Cl)c4C[C@@H]3N(C)C)cc2)cc1 showed a pIC50 of 8.30.
For CN1Cc2c(Cl)cc(Cl)cc2[C@H](c2cccc(S(=O)(=O)NCCOCCOCCNC(=O)NCCC(CCNC(=O)NCCOCCOCCNS(=O)(=O)c3cccc([C@@H]4CN(C)Cc5c(Cl)cc(Cl)cc54)c3)(CCNC(=O)NCCOCCOCCNS(=O)(=O)c3cccc([C@@H]4CN(C)Cc5c(Cl)cc(Cl)cc54)c3)NC(=O)COCC(=O)O)c2)C1, the pIC50 was 8.20.
Work on CN1Cc2c(Cl)cc(Cl)cc2[C@H](c2cccc(S(=O)(=O)NCCOCCOCCNC(=O)NCCCC(CCCNC(=O)NCCOCCOCCNS(=O)(=O)c3cccc([C@@H]4CN(C)Cc5c(Cl)cc(Cl)cc54)c3)(CCCNC(=O)NCCOCCOCCNS(=O)(=O)c3cccc([C@@H]4CN(C)Cc5c(Cl)cc(Cl)cc54)c3)NC(=O)CCC(=O)O)c2)C1 yielded a pIC50 of 7.70.
With CC(O)C(CCC(=O)NCCOCCOCCNS(=O)(=O)c1cccc([C@@H]2CN(C)Cc3c(Cl)cc(Cl)cc32)c1)(CCC(=O)NCCOCCOCCNS(=O)(=O)c1cccc([C@@H]2CN(C)Cc3c(Cl)cc(Cl)cc32)c1)CCC(=O)NCCOCCOCCNS(=O)(=O)c1cccc([C@@H]2CN(C)Cc3c(Cl)cc(Cl)cc32)c1 (some centres undefined) the pIC50 was 7.60.
Work on CN1Cc2c(Cl)cc(Cl)cc2[C@H](c2cccc(S(=O)(=O)NCCOCCOCCNC(=O)NCCCC(CCCNC(=O)NCCOCCOCCNS(=O)(=O)c3cccc([C@@H]4CN(C)Cc5c(Cl)cc(Cl)cc54)c3)(CCCNC(=O)NCCOCCOCCNS(=O)(=O)c3cccc([C@@H]4CN(C)Cc5c(Cl)cc(Cl)cc54)c3)NC(=O)NC[C@H](O)[C@@H](O)[C@H](O)[C@H](O)CO)c2)C1 yielded a pIC50 of 5.80.
In the case of CN1Cc2c(Cl)cc(Cl)cc2[C@H](c2cccc(S(=O)(=O)NCCOCCOCCNC(=O)CCC(CCCNC(=O)NCCOCCOCCNS(=O)(=O)c3cccc([C@@H]4CN(C)Cc5c(Cl)cc(Cl)cc54)c3)(CCC(=O)NCCOCCOCCNS(=O)(=O)c3cccc([C@@H]4CN(C)Cc5c(Cl)cc(Cl)cc54)c3)NC(=O)NCP(=O)(O)O)c2)C1, the pIC50 was 7.30.
CN1CCN(C(=O)NC(CCC(=O)NCCOCCOCCNS(=O)(=O)c2cccc([C@@H]3CN(C)Cc4c(Cl)cc(Cl)cc43)c2)(CCC(=O)NCCOCCOCCNS(=O)(=O)c2cccc([C@@H]3CN(C)Cc4c(Cl)cc(Cl)cc43)c2)CCC(=O)NCCOCCOCCNS(=O)(=O)c2cccc([C@@H]3CN(C)Cc4c(Cl)cc(Cl)cc43)c2)CC1 showed a pIC50 of 6.90.
Compound CN1Cc2c(Cl)cc(Cl)cc2[C@H](c2cccc(S(=O)(=O)NCCOCCOCCNC(=O)NCCC(N)(CCNC(=O)NCCOCCOCCNS(=O)(=O)c3cccc([C@@H]4CN(C)Cc5c(Cl)cc(Cl)cc54)c3)CCNC(=O)NCCOCCOCCNS(=O)(=O)c3cccc([C@@H]4CN(C)Cc5c(Cl)cc(Cl)cc54)c3)c2)C1 has a pIC50 of 7.35.
In the case of CN1Cc2c(Cl)cc(Cl)cc2[C@H](c2cccc(S(=O)(=O)NCCOCCOCCNC(=O)CCC(CCC(=O)NCCOCCOCCNS(=O)(=O)c3cccc([C@@H]4CN(C)Cc5c(Cl)cc(Cl)cc54)c3)(CCC(=O)NCCOCCOCCNS(=O)(=O)c3cccc([C@H]4c5cc(Cl)cc(Cl)c5CCN4C)c3)NC(=O)N[C@@H](CC(=O)O)C(=O)O)c2)C1, the pIC50 was 7.60.
